In one test the test system is CAPAN-1. Briefly: Antiproliferative activity against human CAPAN-1 cells assessed as inhibition of cell proliferation measured after 72 hrs by MTT assay. It is filed as functional, cell-based. Conditions: CAPAN-1, 72 h. On the technique in general: Tetrazolium assays rely on reduction of a dye to a coloured formazan, in cell work by metabolically active cells.
The test system of test [1] is HCT-116. Briefly: Antiproliferative activity against human HCT-116 cells assessed as inhibition of cell proliferation measured after 72 hrs by MTT assay. It is filed as functional, cell-based. Conditions: HCT-116, 72 h.
The subject of another test is NCI-H460. As to the kind of experiment: Antiproliferative activity against human NCI-H460 cells assessed as inhibition of cell proliferation measured after 72 hrs by MTT assay. The conditions noted are these: NCI-H460, 72 h. It is filed as functional, cell-based.
A further test relates to HL-60. Briefly: Antiproliferative activity against human HL-60 cells assessed as inhibition of cell proliferation measured after 72 hrs by MTT assay. Format: functional, cell-based. The conditions noted are these: HL-60, 72 h.
The next test deals with K562. Briefly: Antiproliferative activity against human K562 cells assessed as inhibition of cell proliferation measured after 72 hrs by MTT assay. Conditions: K562, 72 h. It is filed as functional, cell-based.
A further test relates to TERT-RPE1. Briefly: Cytotoxicity against human TERT-RPE1 cells assessed as inhibition of cell proliferation measured after 72 hrs by MTT assay. The conditions noted are these: RPE-1, 72 h. It is filed as cell-based.
A short description of test [2]: Antiproliferative activity against P-gp-positive/doxorubicin-resistant human K562/4 cells assessed as inhibition of cell proliferation measured after 72 hrs by MTT assay. The conditions noted are these: K562/4, 72 h. It is filed as functional.
Test [3] deals with HCT-116. As to the kind of experiment: Antiproliferative activity against human HCT-116 cells with inactivated p53 gene assessed as inhibition of cell proliferation measured after 72 hrs by MTT assay. It is filed as functional, cell-based. Conditions: HCT-116, 72 h.
Test [4] is described as follows: Resistance index, ratio of IC50 for human P-gp-positive/Doxorubicin-resistant K562/4 cells to IC50 for human K562 cells. It is filed as functional.

With `Cc1[nH]c2c(O)c3c(c(O)c2c1C(=O)NC1CCNCC1)C(=O)c1ccccc1C3=O`, the IC50 (usually the midpoint of a concentration-inhibition curve) came to 0.3 µM with CAPAN-1; 1.5 µM in the test with HCT-116 [1]; 1.1 µM in the test on NCI-H460; 0.2 µM in the test with HL-60; 0.4 µM with K562; 11.8 µM with TERT-RPE1.

Consider `NC1CCCN(C(=O)c2csc3c(O)c4c(c(O)c23)C(=O)c2ccccc2C4=O)C1` (racemic), for which the IC50 came to 1.1 µM in the test on CAPAN-1; 0.8 µM with HCT-116 [1]; 4.3 µM in the test with NCI-H460; 3 µM with HL-60; 1.3 µM in the test on K562; 7.9 µM in the test with TERT-RPE1.

For the molecule `O=C1c2ccccc2C(=O)c2c1c(O)c1scc(C(=O)NC3CCNCC3)c1c2O`, the IC50 amounted to 1.2 µM in the test with CAPAN-1; 1.7 µM with HCT-116 [1]; 1.2 µM with NCI-H460; 1.6 µM in the test with HL-60; 1.5 µM in the test on K562; 5.8 µM with TERT-RPE1.

Consider `Cc1c(C(=O)N2CC[C@H](N)C2)c2c(O)c3c(c(O)c2n1Cc1ccccc1)C(=O)c1ccccc1C3=O`, for which the IC50 in the test on CAPAN-1 worked out at 1.6 µM; with HCT-116 [1] it was 1.8 µM; with NCI-H460, 5.4 µM; in the test on HL-60, 1.1 µM; in the test with K562, 0.7 µM; in test [2], 5.5 µM. The figures for the IC50 in the test with HCT-116 [3] and in the test on TERT-RPE1 were 1.8 µM and 14.7 µM, respectively. Also, the “Ratio IC50” value in test [4] came out at 7.9.

Regarding `Cc1[nH]c2c(O)c3c(c(O)c2c1C(=O)N[C@H]1CCNC1)C(=O)c1ccccc1C3=O`, the IC50 with CAPAN-1 was found to be 1 µM; in the test with HCT-116 [1], 1.8 µM; in the test with NCI-H460, 5.3 µM; in the test on HL-60 it was 1 µM; in the test with K562 it was 0.7 µM; in the test on TERT-RPE1 it was 17.1 µM.

As for `O=C1c2ccccc2C(=O)c2c1c(O)c1scc(C(=O)NC3CCCNC3)c1c2O` (racemic), the IC50 came to 1.2 µM in the test on CAPAN-1; 3.2 µM with HCT-116 [1]; 2.7 µM with NCI-H460; 2.6 µM in the test with HL-60; 6.8 µM with K562; 6.8 µM in the test with TERT-RPE1.

Take `O=C1c2ccccc2C(=O)c2c1c(O)c1scc(C(=O)N[C@@H]3CCNC3)c1c2O`: the IC50 was determined as 2.2 µM with CAPAN-1; 0.8 µM with HCT-116 [1]; 2 µM in the test on NCI-H460; 4.6 µM with HL-60; 0.5 µM in the test on K562; 15.5 µM with TERT-RPE1.

With `NC1CCN(C(=O)c2csc3c(O)c4c(c(O)c23)C(=O)c2ccccc2C4=O)CC1`, the IC50 in the test on CAPAN-1 was 0.3 µM; with HCT-116 [1], 1.9 µM; in the test on NCI-H460 it was 1.7 µM; in the test with HL-60, 0.9 µM; with K562, 2 µM; in the test with TERT-RPE1, 15.7 µM.

For the molecule `Cc1[nH]c2c(O)c3c(c(O)c2c1C(=O)N1CCCC(N)C1)C(=O)c1ccccc1C3=O` (stereo not given), the IC50 in the test with CAPAN-1 stood at 1.1 µM; in the test on HCT-116 [1], 2 µM; with NCI-H460, 2.6 µM; in the test on HL-60, 0.2 µM; in the test on K562, 0.4 µM; with TERT-RPE1 it was 16.5 µM.

For the molecule `CCCn1c(C)c(C(=O)N2CC[C@H](N)C2)c2c(O)c3c(c(O)c21)C(=O)c1ccccc1C3=O`, the IC50 came to 4.5 µM with CAPAN-1; 2.2 µM in the test with HCT-116 [1]; 14.3 µM with NCI-H460; 1.3 µM with HL-60; 1.2 µM with K562; 7 µM in test [2]. The IC50 in the test on HCT-116 [3] worked out at 2 µM; in the test with TERT-RPE1, 17.1 µM. In addition, the “Ratio IC50” value in test [4] was 5.8.

In the case of `Cc1[nH]c2c(O)c3c(c(O)c2c1C(=O)NC1CCCNC1)C(=O)c1ccccc1C3=O` (stereo not given), the IC50 with CAPAN-1 amounted to 0.4 µM; with HCT-116 [1] it was 1 µM; in the test with NCI-H460, 1 µM; with HL-60 it was 1.8 µM; in the test on K562, 3.2 µM; in the test on TERT-RPE1, 12.5 µM.

With `Cc1c(C(=O)N2CC[C@H](N)C2)c2c(O)c3c(c(O)c2n1CC(=O)O)C(=O)c1ccccc1C3=O`, the IC50 with CAPAN-1 is 14.3 µM; in the test with HCT-116 [1] it was 17.1 µM; with NCI-H460, 20 µM; in the test with HL-60 it was 13.3 µM; in the test on K562 it was 13.4 µM; in the test on TERT-RPE1, more than 20 µM.

In the case of `N[C@@H]1CCN(C(=O)c2csc3c(O)c4c(c(O)c23)C(=O)c2ccccc2C4=O)C1`, the IC50 with CAPAN-1 was found to be 2 µM; in the test on HCT-116 [1], 2 µM; with NCI-H460, 0.8 µM; in the test on HL-60 it was 4.1 µM; in the test with K562, 1.2 µM; in the test on TERT-RPE1, 12.6 µM.

Regarding `Cc1[nH]c2c(O)c3c(c(O)c2c1C(=O)N1C[C@@H](N)[C@H](N)C1)C(=O)c1ccccc1C3=O`, the IC50 in the test on CAPAN-1 is 8.7 µM; with HCT-116 [1] it was 4.8 µM; with NCI-H460 it was 11.4 µM; in the test with HL-60, 3.1 µM; in the test with K562, 2.4 µM; in test [2], more than 50 µM. The results for the IC50 with HCT-116 [3] and in the test with TERT-RPE1 were 7 µM and more than 20 µM, respectively. For the same molecule, in test [4], the “Ratio IC50” value is more than 20.8.

Consider `CCn1c(C)c(C(=O)N2CC[C@H](N)C2)c2c(O)c3c(c(O)c21)C(=O)c1ccccc1C3=O`, for which the IC50 in the test on CAPAN-1 came to 1.2 µM; with HCT-116 [1], 2.3 µM; in the test with NCI-H460 it was 2.1 µM; in the test on HL-60, 1.1 µM; with K562 it was 1.7 µM; in [2], 28 µM. The IC50 turned out to be 2.5 µM with HCT-116 [3] and 13.6 µM in the test with TERT-RPE1. The “Ratio IC50” value in test [4] is recorded as 16.5.

Take `N[C@@H]1CN(C(=O)c2csc3c(O)c4c(c(O)c23)C(=O)c2ccccc2C4=O)C[C@H]1N`: the IC50 with CAPAN-1 worked out at 2.6 µM; in the test with HCT-116 [1] it was 4 µM; in the test on NCI-H460 it was 12.7 µM; in the test with HL-60, 4.7 µM; with K562, 1.3 µM; in test [2], 14.5 µM. Besides, the IC50 with HCT-116 [3] amounted to 3.8 µM; in the test with TERT-RPE1, 9.1 µM. Moreover, the “Ratio IC50” value in [4] was determined as 11.2.

On to `O=C1c2ccccc2C(=O)c2c1c(O)c1scc(C(=O)N[C@H]3CCNC3)c1c2O`, for which the IC50 with CAPAN-1 is 2.8 µM; with HCT-116 [1] it was 0.9 µM; with NCI-H460, 1.4 µM; in the test with HL-60, 3.9 µM; in the test with K562, 0.7 µM; with TERT-RPE1 it was 14.9 µM.

For `CC(=O)Cn1c(C)c(C(=O)N2CC[C@H](N)C2)c2c(O)c3c(c(O)c21)C(=O)c1ccccc1C3=O`, the IC50 in the test with CAPAN-1 is 13.4 µM; in the test on HCT-116 [1], 16.9 µM; in the test on NCI-H460, 16.4 µM; in the test on HL-60 it was 3.4 µM; with K562, 2.2 µM; with TERT-RPE1, more than 20 µM.

Turning to `Cc1[nH]c2c(O)c3c(c(O)c2c1C(=O)N[C@@H]1CCNC1)C(=O)c1ccccc1C3=O`, the IC50 with CAPAN-1 amounted to 1 µM; in the test on HCT-116 [1], 2.3 µM; with NCI-H460 it was 4.4 µM; with HL-60 it was 1 µM; in the test on K562, 0.8 µM; in the test on TERT-RPE1 it was 14.7 µM.

Consider `Cc1[nH]c2c(O)c3c(c(O)c2c1C(=O)N1CCC(N)CC1)C(=O)c1ccccc1C3=O`, for which the IC50 worked out at 1.7 µM in the test with CAPAN-1; 1.4 µM in the test with HCT-116 [1]; 2.9 µM with NCI-H460; 0.8 µM in the test on HL-60; 2.3 µM in the test with K562; 14.2 µM in the test with TERT-RPE1.

These data come from ChEMBL document CHEMBL4765331, “Amides of pyrrole- and thiophene-fused anthraquinone derivatives: A role of the heterocyclic core in antitumor properties” (Eur J Med Chem, 2020).
